Source: article PMC2229473 (The Journal of General Physiology, 1999)

Columns and labels:
[1] = biological target: T1, KcsA K^+ channel (Streptomyces lividans, UniProt P0A334); assay: single-channel recording in planar lipid bilayer, block of open-channel current; type: biochemical
T1 sequence (P0A334 1-160): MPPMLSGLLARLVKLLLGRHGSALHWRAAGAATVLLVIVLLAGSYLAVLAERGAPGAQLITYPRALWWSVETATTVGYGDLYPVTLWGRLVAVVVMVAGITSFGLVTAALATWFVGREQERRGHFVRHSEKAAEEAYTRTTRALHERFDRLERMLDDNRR

[2] = biological target: T2, KcsA K^+ channel (Streptomyces lividans, UniProt P0A334, Y82C); assay: as above; type: biochemical
T2 sequence (P0A334 1-160 Y82C): T1 sequence (P0A334 1-160)

Which results are given for `CC[N+](CC)(CC)CC` [TEA, tetraethylammonium]?
Ki [1]: 3.2 mM; Ki [2]: 23 mM
